Where a name gives a salt, the structure may show the parent alone.
Target: T1, human FOXO1 (constitutively active form Thr24Ala, Ser256Ala, Ser319Ala) (Homo sapiens, UniProt Q12778, S256A/S319A/T24A)
T1 construct: expressed in transfected cells; host or cells: HEK293 cells transfected with pcDNA3.1 plasmid
Assay: FOXO1 inhibitor activity assay: cell-based transcriptional (luciferase) reporter assay in HEK293 cells
Settings: HEK293 cells transfected with insulin response element firefly luciferase reporter, FOXO1 and Renilla luciferase; 10-point dose response 50 μM to 2.5 nM; 24 hours
Procedure, shortened: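 IC50 and maximal inhibition were fitted by 4-parameter logistic regression on normalized firefly/Renilla luciferase ratios. The 0% reference used RFP in place of FOXO1, and the 100% reference was DMSO-only with all plasmids.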

T1 sequence (Q12778 whole entry T24A/S256A/S319A): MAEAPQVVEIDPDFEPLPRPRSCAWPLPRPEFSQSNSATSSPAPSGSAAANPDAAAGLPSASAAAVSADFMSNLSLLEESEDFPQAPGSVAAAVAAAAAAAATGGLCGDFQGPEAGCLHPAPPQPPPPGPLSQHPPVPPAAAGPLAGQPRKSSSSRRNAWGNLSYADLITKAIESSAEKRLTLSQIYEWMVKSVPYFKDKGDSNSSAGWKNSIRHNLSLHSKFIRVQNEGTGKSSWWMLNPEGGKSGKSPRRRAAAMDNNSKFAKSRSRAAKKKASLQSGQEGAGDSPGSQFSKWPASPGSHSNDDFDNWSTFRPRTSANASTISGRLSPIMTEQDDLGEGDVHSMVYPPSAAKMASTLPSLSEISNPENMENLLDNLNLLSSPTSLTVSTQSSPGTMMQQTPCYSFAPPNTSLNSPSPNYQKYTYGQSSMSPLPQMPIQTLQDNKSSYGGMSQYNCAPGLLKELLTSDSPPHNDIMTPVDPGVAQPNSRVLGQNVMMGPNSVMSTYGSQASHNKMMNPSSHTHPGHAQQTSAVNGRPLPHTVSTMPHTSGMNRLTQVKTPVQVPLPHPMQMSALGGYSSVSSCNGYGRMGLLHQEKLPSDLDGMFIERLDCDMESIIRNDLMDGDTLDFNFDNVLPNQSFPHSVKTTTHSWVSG

With `COCCOc1ccc(C(=O)Nc2cc(-c3nc4cccc(F)c4[nH]3)n(C)n2)cc1Cl` [Compound A-164, 3-chloro-N-[5-(7-fluoro-1H-benzimidazol-2-yl)-1-methyl-pyrazol-3-yl]-4-(2-methoxyethoxy)benzamide] the IC50 was less than 100 nM.
Work on `Cn1nc(NC(=O)c2ccc(OCCO)c(Cl)c2)cc1-c1nc2cccc(F)c2[nH]1` [Compound A-165, 3-chloro-N-[5-(7-fluoro-1H-benzimidazol-2-yl)-1-methyl-pyrazol-3-yl]-4-(2-hydroxyethoxy)benzamide] yielded an IC50 of less than 100 nM.
`COCCOc1ccc(C(=O)Nc2cc(-c3nc4cc(F)ccc4[nH]3)n(C)n2)cc1Cl` [Compound A-166, 3-chloro-N-[5-(5-fluoro-1H-benzimidazol-2-yl)-1-methyl-pyrazol-3-yl]-4-(2-methoxyethoxy)benzamide] gave an IC50 of less than 100 nM.
`Cn1nc(NC(=O)c2ccc(OCCO)c(Cl)c2)cc1-c1nc2cc(F)ccc2[nH]1` [Compound A-167, 3-chloro-N-[5-(5-fluoro-1H-benzimidazol-2-yl)-1-methyl-pyrazol-3-yl]-4-(2-hydroxyethoxy)benzamide] gave an IC50 of less than 100 nM.
With `Cn1nc(NC(=O)c2ccc(N3CCC(N4CCOCC4)CC3)nc2)cc1-c1nc2cc(F)ccc2[nH]1` [Compound A-168, N-[5-(5-fluoro-1H-benzimidazol-2-yl)-1-methyl-pyrazol-3-yl]-6-(4-morpholino-1-piperidyl)pyridine-3-carboxamide] the IC50 was 100 to 300 nM.
`CN(C1CCN(c2ccc(C(=O)Nc3cc(-c4nc5ccccc5[nH]4)[nH]n3)cn2)CC1)S(C)(=O)=O` [Compound A-169, N-[5-(1H-benzimidazol-2-yl)-1H-pyrazol-3-yl]-6-[4-[methyl(methyl-sulfonyl)amino]-1-piperidyl]pyridine-3-carboxamide] showed an IC50 of 100 to 300 nM.
In the case of `CC(=O)N(C)C1CCN(c2ccc(C(=O)Nc3cc(-c4nc5ccccc5[nH]4)[nH]n3)cn2)CC1` [Compound A-170, 6-[4-[acetyl(methyl)amino]-1-piperidyl]-N-[5-(1H-benzimidazol-2-yl)-1H-pyrazol-3-yl]pyridine-3-carboxamide], the IC50 is reported as 100 to 300 nM.
In the case of `O=C(Nc1cc(-c2nc3ccccc3[nH]2)[nH]n1)c1ccc(N2CCN(C3COC3)CC2)nc1` [Compound A-171, N-[5-(1H-benzimidazol-2-yl)-1H-pyrazol-3-yl]-6-[4-(oxetan-3-yl)-piperazin-1-yl]pyridine-3-carboxamide], the IC50 is reported as less than 100 nM.
`O=C(Nc1cc(-c2nc3ccccc3[nH]2)[nH]n1)c1ccc(N2CCC(N3CCOCC3)CC2)nc1` [Compound A-172, N-[5-(1H-benzimidazol-2-yl)-1H-pyrazol-3-yl]-6-(4-morpholino-1-piperidyl)pyridine-3-carboxamide] gave an IC50 of less than 100 nM.
`Cn1nc(NC(=O)c2ccc(N3CCC(N4CCOCC4)CC3)nc2)cc1-c1nc2cccc(F)c2[nH]1` [Compound A-173] gave an IC50 of 100 to 300 nM.
With `COCCN1CCN(c2ccc(C(=O)Nc3cc(-c4nc5ccccc5[nH]4)[nH]n3)cc2)CC1` [Compound A-174, N-[5-(1H-benzimidazol-2-yl)-1H-pyrazol-3-yl]-4-[4-(2-methoxyethyl)-piperazin-1-yl]benzamide] the IC50 was less than 100 nM.
In the case of `COCCn1nc(NC(=O)c2ccc(OC)c(Cl)c2)cc1-c1nc2ccccc2[nH]1` [Compound A-175, N-[5-(1H-benzimidazol-2-yl)-1-(2-methoxyethyl)pyrazol-3-yl]-3-chloro-4-methoxy-benzamide], the IC50 is reported as greater than 1000 nM.
`COCCn1nc(NC(=O)c2ccc(N3CC(OC)C3)nc2)cc1-c1nc2ccccc2[nH]1` [Compound A-176, N-[5-(1H-benzimidazol-2-yl)-1-(2-methoxyethyl)pyrazol-3-yl]-6-(3-methoxyazetidin-1-yl)pyridine-3-carboxamide] was tested, and the IC50 was greater than 1000 nM.
With `CN1CCN(c2ccc(C(=O)Nc3cc(-c4nc5ccccc5[nH]4)[nH]n3)nn2)CC1` [Compound A-177, N-[5-(1H-benzimidazol-2-yl)-1H-pyrazol-3-yl]-6-(4-methylpiperazin-1-yl)pyridazine-3-carboxamide] the IC50 was greater than 1000 nM.
Work on `COCCN1CCN(c2ccc(C(=O)Nc3cc(-c4nc5ccccc5[nH]4)n(CCOC)n3)cn2)CC1` [Compound A-178, N-[5-(1H-benzimidazol-2-yl)-1-(2-methoxyethyl)pyrazol-3-yl]-6-[4-(2-methoxyethyl)piperazin-1-yl]pyridine-3-carboxamide] yielded an IC50 of 300 to 1000 nM.
With `CN1CCN(c2cnc(C(=O)Nc3cc(-c4nc5ccccc5[nH]4)[nH]n3)cn2)CC1` [Compound A-179, N-[5-(1H-benzimidazol-2-yl)-1H-pyrazol-3-yl]-5-(4-methylpiperazin-1-yl)pyrazine-2-carboxamide] the IC50 was 100 to 300 nM.
Compound `CN1CCN(c2ncc(C(=O)Nc3cc(-c4nc5ccccc5[nH]4)[nH]n3)cn2)CC1` [Compound A-180, N-[5-(1H-benzimidazol-2-yl)-1H-pyrazol-3-yl]-2-(4-methylpiperazin-1-yl)pyrimidine-5-carboxamide] has an IC50 of 100 to 300 nM.
For `O=C(Nc1cc(-c2nc3ccccc3[nH]2)[nH]n1)c1ccc(N2CCN(CCO)CC2)cc1` [Compound A-181], the IC50 was less than 100 nM.
With `COCCn1nc(NC(=O)c2ccc(N3CCN(C)CC3)nc2)cc1-c1nc2ccccc2[nH]1` [Compound A-182, N-[5-(1H-benzimidazol-2-yl)-1-(2-methoxyethyl)pyrazol-3-yl]-6-(4-methyl-piperazin-1-yl)pyridine-3-carboxamide] the IC50 was 300 to 1000 nM.
`COC1CN(c2ncc(C(=O)Nc3cc(-c4nc5ccccc5[nH]4)[nH]n3)cn2)C1` [Compound A-183, N-[5-(1H-benzimidazol-2-yl)-1H-pyrazol-3-yl]-2-(3-methoxyazetidin-1-yl)pyrimidine-5-carboxamide] showed an IC50 greater than 1000 nM.
In the case of `CN1CCN(c2ccc(C(=O)Nc3cc(-c4nc5ccccc5[nH]4)[nH]n3)nc2)CC1` [Compound A-184, N-[5-(1H-benzimidazol-2-yl)-1H-pyrazol-3-yl]-5-(4-methylpiperazin-1-yl)pyridine-2-carboxamide], the IC50 is reported as greater than 1000 nM.
`COCCn1nc(NC(=O)c2ccc(N3CCN(C)CC3)cc2)cc1-c1nc2ccccc2[nH]1` [Compound A-185, N-[5-(1H-benzimidazol-2-yl)-1-(2-methoxyethyl)pyrazol-3-yl]-4-(4-methylpiperazin-1-yl)benzamide] showed an IC50 greater than 1000 nM.
With `COC1CN(c2cnc(C(=O)Nc3cc(-c4nc5ccccc5[nH]4)[nH]n3)cn2)C1` [Compound A-186, N-[5-(1H-benzimidazol-2-yl)-1H-pyrazol-3-yl]-5-(3-methoxyazetidin-1-yl)pyrazine-2-carboxamide] the IC50 was greater than 1000 nM.
`COc1cc(F)c2[nH]c(-c3cc(NC(=O)c4ccc(N5CC(OC)C5)nc4)nn3C)nc2c1` [Compound A-187, N-[5-(7-fluoro-5-methoxy-1H-benzimidazol-2-yl)-1-methyl-pyrazol-3-yl]-6-(3-methoxyazetidin-1-yl)pyridine-3-carboxamide] was tested, and the IC50 was 300 to 1000 nM.
Work on `COc1cc(F)c2[nH]c(-c3cc(NC(=O)c4ccc(N5CC(OC)C5)nc4)n[nH]3)nc2c1` [Compound A-188, N-[5-(7-fluoro-5-methoxy-1H-benzimidazol-2-yl)-1H-pyrazol-3-yl]-6-(3-methoxyazetidin-1-yl)pyridine-3-carboxamide] yielded an IC50 greater than 1000 nM.
Work on `COc1cc(F)c2[nH]c(-c3cc(NC(=O)c4ccc(N5CCC(OC)CC5)nc4)nn3C)nc2c1` [Compound A-189, N-[5-(7-fluoro-5-methoxy-1H-benzimidazol-2-yl)-1-methyl-pyrazol-3-yl]-6-(4-methoxy-1-piperidyl)pyridine-3-carboxamide] yielded an IC50 of less than 100 nM.
Work on `COCCN1CCN(c2ccc(C(=O)Nc3cc(-c4nc5cc(OC)cc(F)c5[nH]4)n(C)n3)cn2)CC1` [Compound A-190, N-[5-(7-fluoro-5-methoxy-1H-benzimidazol-2-yl)-1-methyl-pyrazol-3-yl]-6-[4-(2-methoxyethyl)piperazin-1-yl]pyridine-3-carboxamide] yielded an IC50 of less than 100 nM.
`COc1cc(F)c2[nH]c(-c3cc(NC(=O)c4ccc(N5CCN(C)CC5)nc4)nn3C)nc2c1` [Compound A-191, N-[5-(7-fluoro-5-methoxy-1H-benzimidazol-2-yl)-1-methyl-pyrazol-3-yl]-6-(4-methylpiperazin-1-yl)pyridine-3-carboxamide] showed an IC50 of 100 to 300 nM.
`COCCN1CCN(c2ccc(C(=O)Nc3cc(-c4nc5cc(OC)cc(F)c5[nH]4)[nH]n3)cn2)CC1` [Compound A-192, N-[5-(7-fluoro-5-methoxy-1H-benzimidazol-2-yl)-1H-pyrazol-3-yl]-6-[4-(2-methoxyethyl)piperazin-1-yl]pyridine-3-carboxamide] gave an IC50 greater than 1000 nM.
`COc1cc(F)c2[nH]c(-c3cc(NC(=O)c4ccc(N5CCC(OC)CC5)nc4)n[nH]3)nc2c1` [Compound A-193, N-[5-(7-fluoro-5-methoxy-1H-benzimidazol-2-yl)-1H-pyrazol-3-yl]-6-(4-methoxy-1-piperidyl)pyridine-3-carboxamide] gave an IC50 greater than 1000 nM.
Compound `COc1ccc(C(=O)Nc2cc(-c3nc4ccccc4[nH]3)n(CCO)n2)cc1Cl` [Compound A-195, N-[5-(1H-benzimidazol-2-yl)-1-(2-hydroxyethyl)pyrazol-3-yl]-3-chloro-4-methoxy-benzamide] has an IC50 of 100 to 300 nM.
`COC1CN(c2ccc(C(=O)Nc3cc(-c4nc5ccccc5[nH]4)n(CCO)n3)cn2)C1` [Compound A-196, N-[5-(1H-benzimidazol-2-yl)-1-(2-hydroxyethyl)pyrazol-3-yl]-6-(3-methoxyazetidin-1-yl)pyridine-3-carboxamide] showed an IC50 greater than 1000 nM.
`O=C(O)CCN1CCN(c2ccc(C(=O)Nc3cc(-c4nc5ccccc5[nH]4)[nH]n3)cc2)CC1` [Compound A-197, 3-[4-[4-[[5-(1H-benzimidazol-2-yl)-1H-pyrazol-3-yl]carbamoyl]phenyl]-piperazin-1-yl]propanoic acid hydrochloride] was tested, and the IC50 was greater than 1000 nM.
`COCCN1CCN(c2ccc(C(=O)Nc3cc(-c4nc5ccccc5[nH]4)n(CCO)n3)cn2)CC1` [Compound A-198, N-[5-(1H-benzimidazol-2-yl)-1-(2-hydroxyethyl)pyrazol-3-yl]-6-[4-(2-methoxyethyl)piperazin-1-yl]pyridine-3-carboxamide] showed an IC50 of 300 to 1000 nM.
